Source: US20260317367A1, “SALTS INCLUDING CRYSTALLINE SALTS OF 25-HYDROXY-CHOLEST-5-EN-3-SULFATE AND METHODS FOR PREPARING SAME” (Durect Corporation, priority 2022, published 2026)
Structures can show the parent of a compound that is named as a salt. Blank lines part the entries; values can stand above or below the molecule they belong to.

Legend:
[1] = Dynamic vapor sorption (DVS), hygroscopicity; type: physicochemical; conditions: DVS
Text: Dynamic vapor sorption (DVS) measures the uptake of a vapor (typically water) by a sample when exposed to a changing relative humidity. The loss of water can also be measured as relative humidity is decreased. Hygroscopic materials tend to absorb water more readily than non-hygroscopic. In some cases, hydrates absorb water to create higher-order hydrates (e.g., a monohydrate converting to a dihydrate when exposed to increasingly humid conditions). In some salts of the disclosure, moisture is retained upon exposure in a DVS experiment and little or no weight loss is observed upon heating from room temperature. In such experiments, the hygroscopic nature of the salt under study may indicate the formation of a hydrate from an anhydrate. […] Exemplary methods for collecting DVS data are set forth in Example 26.
Dynamic vapor sorption data was collected on a Surface Measurement System DVS Intrinsic instrument. The samples were not dried prior to analysis. Sorption and desorption data were collected over a range from 5% to 95% RH in 10% RH increments under a nitrogen purge. The equilibrium criteria used for the analyses were 0.001 dm/dt weight change in 5 minutes with a minimum step time of 30 minutes and maximum equilibration time of 180 minutes with a 3 minute data logging interval. Data were not corrected for the initial moisture content of the sample.

[2] = Humidity / water activity stability of crystalline 25HC3S sodium forms; type: physicochemical
lipid biosynthesis = conditions: shown previously; cited from earlier work
[3] = test system: cholesterol secretion and degradation; conditions: shown previously; cited from earlier work

Hygroscopicity (in words) [1]: hygroscopic
Water activity above which a liquid crystal may form ([2]; high water activities): above 0.73
Compound: CC(CCCC(C)(C)O)C1CCC2C3CC=C4CC(OS(=O)(=O)O)CCC4(C)C3CCC12C (centres unmarked) [Form I, reference compound]

Compound: C[C@H](CCCC(C)(C)O)[C@H]1CCC2C3CC=C4C[C@@H](OS(=O)(=O)O)CC[C@]4(C)C3CC[C@@]21C (stereo partly drawn) [Salt 25HC3S, [(3S,10R,13R,17R)-17-[(1R)-5-hydroxy-1,5-dimethyl-hexyl]-10,13-dimethyl-2,3,4,7,8,9,11,12,14,15,16,17-dodecahydro-1H-cyclopenta[a]phenanthren-3-yl]sulfate]
Effect on lipid biosynthesis (lipid biosynthesis): decreases
Effect on cholesterol secretion and degradation [3]: increases

Behaviour under humid conditions (in words) ([2]; humid conditions): stabilizes as a hydrate
Compound: C[C@H](CCCC(C)(C)O)[C@H]1CC[C@H]2[C@@H]3CC=C4C[C@@H](OS(=O)(=O)[O-])CC[C@]4(C)[C@H]3CC[C@]12C.[Na+] [crystalline 25HC3S sodium, Sodium [(3S,10R,13R,17R)-17-[(1R)-5-hydroxy-1,5-dimethyl-hexyl]-10,13-dimethyl-2,3,4,7,8,9,11,12,14,15,16,17-dodecahydro-1H-cyclopenta[a]phenanthren-3-yl]sulfate]
